Source: patent US12226405B2, “Compounds and compositions for inhibiting the activity of HIF2-alpha and their methods of use” (Novartis AG, priority 2020, dated 2025)

Columns and labels:
[1] = tested on: HIF2α-regulated expression of the endogenous target gene hEGLN3 in 786-O cells; assay: Cellular iScript assay for HIF2α (quantitative RT-PCR of hEGLN3); assay type: cell-based, human; settings: Homo sapiens, 786-0, 48 hours incubation
In short: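 786-O cells were exposed to eleven 2-fold compound dilutions for 48 h at 37° C. Lysates underwent one-step TaqMan qRT-PCR for hEGLN3 with beta-actin as reference; 2^(−ΔΔCt) versus DMSO, as % of control, was fit with a four-parameter model to give IC50.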

[2] = tested on: HIF2α-dependent transcription in 786-O-HRE-Luc cells; assay: In vitro cellular hypoxia response element (HRE) reporter gene assay (RGA) for HIF2α; assay type: cell-based, human; settings: Homo sapiens, 24 hours incubation
In short: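 Renal carcinoma cells carrying a 4×HRE-driven PEST-destabilised firefly luciferase were treated a day after seeding with eleven 2-fold compound dilutions (0.1% DMSO) for 24 h at 37° C. BrightGlo luminescence, background-subtracted and expressed as % of DMSO control, was fitted four-parametrically for IC50.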

[3] = biological target: HIF2α PAS-B domain (236-350, biotinylated on the N-terminus) (Homo sapiens (Human), UniProt Q99814)
HIF2α PAS-B domain (236-350, biotinylated on the N-terminus), sequence (Q99814 236-350): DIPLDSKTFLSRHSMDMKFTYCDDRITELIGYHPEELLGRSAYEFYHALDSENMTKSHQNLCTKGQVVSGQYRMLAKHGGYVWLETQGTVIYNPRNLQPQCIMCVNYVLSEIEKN
Experimental: The assay buffer contained 50 mM Tris-HCl pH7 (Sigma), 20 mM NaCl (Fluka), 0.02% BSA (Sigma), 0.005% Triton X-100 (Pierce) and 1 mM DTT (Fluka). After a 30 min incubation period, 5 μL Streptavidin PVT SPA Beads (Perkin Elmer) at 1.2 mg/mL, diluted in the buffer, were added.

SMILES | IC50 [1] | IC50 [2] | IC50 [3]
Cc1nccc2c1C(F)(F)CC[C@@]21CN2C=C(C(F)(F)F)C=C(OC(F)F)C2=N1 [Example 32, (S)-8-(difluoromethoxy)-8′,8′-difluoro-1′-methyl-6-(trifluoromethyl)-7′,8′-dihydro-3H,6′H-spiro[imidazo[1,2-a]pyridine-2,5′-isoquinoline]] | 78 nM | 861 nM | 13 nM
[2H]C([2H])([2H])c1nccc2c1C(F)(F)CC[C@@]21CN2C=C(C(F)(F)F)C=C(OC(F)F)C2=N1 [Example 33, (S)-8-(difluoromethoxy)-8′,8′-difluoro-1′-(methyl-d3)-6-(trifluoromethyl)-7′,8′-dihydro-3H, 6′H-spiro[imidazo[1,2-a]pyridine-2,5′-isoquinoline]] | 78 nM | 547 nM | 17 nM
COc1nccc2c1C(F)(F)CC[C@@]21CN2C=C(C(F)(F)F)C=C(OC(F)F)C2=N1 [Example 34, (S)-8-(difluoromethoxy)-8′,8′-difluoro-1′-methoxy-6-(trifluoromethyl)-7′,8′-dihydro-3H, 6′H-spiro[imidazo[1,2-a]pyridine-2,5′-isoquinoline]] | 197 nM | 1430 nM | 23 nM
N#CC1=CN2C[C@@]3(CCCc4cc(F)ccc43)N=C2C(OC(F)F)=C1 [Example 35, (S)-8-(difluoromethoxy)-6′-fluoro-3′,4′-dihydro-2′H,3H-spiro[imidazo[1,2-a]pyridine-2,1′-naphthalene]-6-carbonitrile] | 83 nM | 267 nM | 9 nM
FC(F)OC1=CC(C(F)(F)F)=CN2C[C@@]3(CCCc4c3ccnc4Cl)N=C12 [Example 36, (S)-1′-chloro-8-(difluoromethoxy)-6-(trifluoromethyl)-7′,8′-dihydro-3H,6′H-spiro[imidazo[1,2-a]pyridine-2,5′-isoquinoline]] | 73 nM | 147 nM | 6 nM
FC(F)OC1=CC(C(F)(F)F)=CN2C[C@@]3(CCCc4cc(Cl)ncc43)N=C12 [Example 37, (S)-3′-chloro-8-(difluoromethoxy)-6-(trifluoromethyl)-6′,7′-dihydro-3H,5′H-spiro[imidazo[1,2-a]pyridine-2,8′-isoquinoline]] | 89 nM | 308 nM | 25 nM
N#Cc1ccc2c(c1)CCC[C@@]21CN2C=C(C(F)(F)F)C=C(OC(F)F)C2=N1 [Example 38, (S)-8-(difluoromethoxy)-6-(trifluoromethyl)-3′,4′-dihydro-2′H,3H-spiro[imidazo[1,2-a]pyridine-2,1′-naphthalene]-6′-carbonitrile] | 84 nM | 322 nM | 12 nM
Fc1c(Br)ccc2c1OCC[C@@]21CN2C=C(C(F)(F)F)C=C(OC(F)F)C2=N1 [Example 39, (S)-7-bromo-8′-(difluoromethoxy)-8-fluoro-6′-(trifluoromethyl)-3′H-spiro[chroman-4,2′-imidazo[1,2-a]pyridine]] | 49 nM | 251 nM | ≤ 6 nM
Fc1c(C(F)(F)F)ccc2c1OCC[C@@]21CN2C=C(C(F)(F)F)C=C(OC(F)F)C2=N1 [Example 40, (S)-8′-(difluoromethoxy)-8-fluoro-6′,7-bis(trifluromethyl)-3′H-spiro[chroman-4,2′-imidazo[1,2-a]pyridine]] | 50 nM | 190 nM | 6 nM
FC(F)OC1=CC(C(F)(F)F)=CN2C[C@@]3(CCOc4cc(Cl)ccc43)N=C12 [Example 41, (S)-7-chloro-8′-(difluoromethoxy)-6′-(trifluoromethyl)-3′H-spiro[chroman-4,2′-imidazo[1,2-a]pyridine]] | 54 nM | 283 nM | 11 nM
FCOC1=CC(C(F)(F)F)=CN2C[C@@]3(CCOc4c3ccc(Br)c4F)N=C12 [Example 42, (S)-7-bromo-8-fluoro-8′-(fluoromethoxy)-6′-(trifluoromethyl)-3′H-spiro[chroman-4,2′-imidazo[1,2-a]pyridine]] | 72 nM | 96 nM | 8 nM
Fc1c(Cl)ccc2c1OCC[C@@]21CN2C=C(C(F)(F)F)C=C(OC(F)F)C2=N1 [Example 43, (S)-7-chloro-8′-(difluoromethoxy)-8-fluoro-6′-(trifluoromethyl)-3′H-spiro[chroman-4,2′-imidazo[1,2-a]pyridine]] | 59 nM | 180 nM | 10 nM
Fc1ccc2c(c1F)OCC[C@@]21CN2C=C(C(F)(F)F)C=C(OC(F)F)C2=N1 [Example 45, (S)-8′-(difluoromethoxy)-7,8-difluoro-6′-(trifluoromethyl)-3′H-spiro[chroman-4,2′-imidazo[1,2-a]pyridine]] | 85 nM | 313 nM | ≤ 10 nM
Cc1ccc2c(c1F)OCC[C@@]21CN2C=C(C(F)(F)F)C=C(OC(F)F)C2=N1 [Example 46, (S)-8′-(difluoromethoxy)-8-fluoro-7-methyl-6′-(trifluoromethyl)-3′H-spiro[chroman-4,2′-imidazo[1,2-a]pyridine]] | 50 nM | 68 nM | 13 nM
Fc1cccc2c1OCC[C@@]21CN2C=C(C(F)(F)F)C=C(OC(F)F)C2=N1 [Example 47, (S)-8′-(difluoromethoxy)-8-fluoro-6′-(trifluoromethyl)-3′H-spiro[chroman-4,2′-imidazo[1,2-a]pyridine]] | 82 nM | 694 nM | 11 nM
FC(F)OC1=CC(C(F)(F)F)=CN2C[C@@]3(CCOc4c(Cl)cccc43)N=C12 [Example 48, (S)-8-chloro-8′-(difluoromethoxy)-6′-(trifluoromethyl)-3′H-spiro[chroman-4,2′-imidazo[1,2-a]pyridine]] | 63 nM | 974 nM | ≤ 10 nM
N#CC1=CN2C[C@@]3(CCOc4c3ccc(Br)c4F)N=C2C(OC(F)F)=C1 [Example 49, (S)-7-bromo-8′-(difluoromethoxy)-8-fluoro-3′H-spiro[chroman-4,2′-imidazo[1,2-a]pyridine]-6′-carbonitrile] | 173 nM | 979 nM | 12 nM
FC(F)OC1=CC(C(F)(F)F)=CN2C[C@@]3(CCOc4cc(Br)ccc43)N=C12 [Example 50, (S)-7-bromo-8′-(difluoromethoxy)-6′-(trifluoromethyl)-3′H-spiro[chroman-4,2′-imidazo[1,2-a]pyridine]] | 61 nM | 153 nM | ≤ 10 nM
N#CC1=CN2C[C@@]3(CCOc4c3ccc(I)c4F)N=C2C(OC(F)F)=C1 [Example 51, (S)-8′-(difluoromethoxy)-8-fluoro-7-iodo-3′H-spiro[chroman-4,2′-imidazo[1,2-a]pyridine]-6′-carbonitrile] | 81 nM | 509 nM | 9 nM
Fc1c(Br)ccc2c1OCC[C@@]21CN2C=C(Cl)C=C(OC(F)F)C2=N1 [Example 52, (S)-7-bromo-6′-chloro-8′-(difluoromethoxy)-8-fluoro-3′H-spiro[chroman-4,2′-imidazo[1,2-a]pyridine]] | 87 nM | 416 nM | 11 nM
FC(F)(F)C1=CN2C[C@@]3(CCOc4cc(C(F)(F)F)ccc43)N=C2C(Cl)=C1 [Example 53, (S)-8′-chloro-6′,7-bis(trifluoromethyl)-3′H-spiro[chroman-4,2′-imidazo[1,2-a]pyridine]] | 184 nM | 839 nM | 14 nM
Fc1c(OC(F)F)ccc2c1OCC[C@@]21CN2C=C(C(F)(F)F)C=C(OC(F)F)C2=N1 [Example 54, (S)-7,8′-bis(difluoromethoxy)-8-fluoro-6′-(trifluoromethyl)-3′ H-spiro[chroman-4,2′-imidazo[1,2-a]pyridine]] | 85 nM | 317 nM | 33 nM
FC(F)OC1=CC(C(F)(F)F)=CN2C[C@@]3(CCOc4c(C(F)F)cccc43)N=C12 [Example 55, (S)-8′-(difluoromethoxy)-8-(difluoromethyl)-6′-(trifluoromethyl)-3′H-spiro[chroman-4,2′-imidazo[1,2-a]pyridine]] | 115 nM | 7650 nM | 9 nM
FC(F)OC1=CC(C(F)(F)F)=CN2C[C@@]3(CCOc4c3ccnc4Cl)N=C12 [Example 56, (S)-8′-chloro-8-(difluoromethoxy)-6-(trifluoromethyl)-2′,3′-dihydro-3H-spiro[imidazo[1,2-a]pyridine-2,4′-pyrano[2,3-c]pyridine]] | 164 nM | 6660 nM | 13 nM
Fc1c(Br)ccc2c1OC[C@H](F)[C@@]21CN2C=C(C(F)(F)F)C=C(OC(F)F)C2=N1 [Example 57, (2′S,3R)-7-bromo-8′-(difluoromethoxy)-3,8-difluoro-6′-(trifluoromethyl)-3′H-spiro[chroman-4,2′-imidazo[1,2-a]pyridine]] | 62 nM | 196 nM | 12 nM
Fc1c(Br)ccc2c1OC[C@@H](F)[C@@]21CN2C=C(C(F)(F)F)C=C(OC(F)F)C2=N1 [Example 58, (2′S,3S)-7-bromo-8′-(difluoromethoxy)-3,8-difluoro-6′-(trifluoromethyl)-3′H-spiro[chroman-4,2′-imidazo[1,2-a]pyridine]] | 173 nM | 183 nM | 8 nM
FC(F)OC1=CC(C(F)(F)F)=CN2C[C@@]3(N=C12)c1ccc(Br)cc1OC[C@@H]3F [Example 59, (2′S,3R)-7-bromo-8′-(difluoromethoxy)-3-fluoro-6′-(trifluoromethyl)-3′H-spiro[chroman-4,2′-imidazo[1,2-a]pyridine]] | 55 nM | 73 nM | 12 nM
